Measured values as given in patent US9359409B2, “Antimicrobial peptides, compositions comprising the same and uses thereof” (priority 2012, dated 2016).
Where two headings read alike, the source gives them in different places. Ends that are not written are not given here.

Columns and labels:
Pseudomonas aeruginosa = assay: MIC by broth microdilution; assay type: cell-based
Experimental: (§1) The 5 designed and synthesized peptides of the invention, plus omiganan (peptide of the state of the art) were evaluated for their antimicrobial capacity in microdilution assays for determining the minimum inhibitory concentration (MIC). A first panel of 8 representative strains was analyzed in these assays, encompassing Gram positive and Gram negative bacteria. […] The lowest MIC values indicate a higher antimicrobial potency.
(§2) Subsequently, an analysis of a panel of clinical isolates including strains with different resistance mechanisms against conventional antibiotics was carried out, all of which are of clinical relevance. […] In Table 3 the results for a panel of Gram negative bacteria are shown, and in Table 4 for a panel of […] bacteria. In these tables the detected gene/s responsible for the resistance against antibiotics for each strain, are included.
(§3) Antimicrobial activity was analyzed by means of the determination of the MIC (minimum inhibitory concentration) by the microdilution technique. The technique was carried out in the standard fashion according to (CLSI M07-A9 Vol. 32 No 2. January 2012). The peptide concentration range used was from 0.5 μg/mL to 512 μg/mL in two-fold serial dilutions. The used medium was MH Difco broth supplemented with cations, at a final concentration of Ca^++20-25 mg/L and Mg^++10-12.5 mg/L. The working inoculum used corresponds to a 1/100 dilution of a bacterial suspension equivalent to 0.5 in the Mc Farland scale.

Staphylococcus aureus = assay: MIC by broth microdilution; assay type: cell-based
Experimental: as §1, §2, §3

human erythrocytes = assay: Erythrocyte hemolysis assay (cytotoxicity); assay type: cell-based
Experimental: Subsequently, the capacity of the peptides of the invention for lysing human erythrocytes was evaluated, as a measure of their cytotoxicity (Table 2). The assays were carried out according to the Examples and are expressed as a percentage of total lysis obtained with either water or the surfactant Tween 20. In this assays, the lower hemolysis percentage, the lower expected cytotoxic activity.
Evaluation of cytotoxic activity was performed by means of an erythrocyte hemolysis assay (according to Pure Appl. Chem., Vol. 79, No. 4, pp. 717-728, 2007). In brief, from a volume of heparinized human whole blood, 3 times that volume of PBS is added and centrifuged 10 minutes at 1500 rpm, repeating the washing two more times. 10% blood solutions in PBS were prepared with that pellet. Subsequently, each group was added the corresponding peptide at the indicated concentration and incubated at 37° C. for 30 minutes. […]

K. pneumoniae = assay type: cell-based
Experimental: (§4) In vitro sensitivity assay of aerobically growing bacteria, using the disc diffusion method was performed according to the standards in the M2 document of the CLSI (Clinical and Laboratory Standards Institute: Performance Standards for Antimicrobial Disk Susceptibility Tests.) using the non-amidated peptides
(§5) In brief, intermediate solutions (10×) of the antimicrobial non-amidated peptides were prepared by serial dilutions 1:2, 1:4 and 1:8 by two-fold dilutions. Then, one part of the solution of the antimicrobial peptide 10× was added to nine parts of melted bacteriological agar. The antibiotic solution was added for each dilution, in the melted agar and cooled to 45-50° C. in a water bath. Then, the agar-antibiotic mixture was placed in a Petri dish until a 3-4 mm depth was reached. The inoculum is prepared with a turbidity of 0.5 in the McFarland scale (approximately 1-2 10^8 CFU/ml). The final inoculum required for the agar dilution test is 10^4 colony forming units (CFU) per “spot” having 5-8 mm in diameter. The inoculated plates must be incubated upside down at 35° C. for a period of 16-20 hs. MIC was recorded as the value of the lower dilution completely inhibiting bacterial development, without considering the development of a single colony or a slight film caused by the inoculum deposit. The final point in these cases will correspond to the concentration at which there is more than 80% reduction in growth as compared with the control.

S. aureus = assay type: cell-based
Experimental: as §4, §5

E. coli = assay type: cell-based
Experimental: as §4, §5

S. warnerii = assay type: cell-based
Experimental: as §4, §5

P. aeruginosa = assay type: cell-based
Experimental: as §4, §5

S. cohnii = assay type: cell-based
Experimental: as §4, §5

Escherichia coli = tested on: Escherichia coli
Experimental: as §1, §2, §3

S. haemolyticus = tested on: S. haemolyticus
Experimental: as §2, §3

A. baumanii = tested on: A. baumanii
Experimental: as §2, §3

E. raffinosus = tested on: E. raffinosus
Experimental: as §2, §3

E. gallinarum = tested on: E. gallinarum
Experimental: as §2, §3

S. saprophyticus = tested on: S. saprophyticus
Experimental: as §2, §3

E. faecalis = tested on: E. faecalis
Experimental: as §2, §3

[1] = P. aeruginosa M7525, resistance gene spm
[2] = P. aeruginosa M7712, resistance gene spm
[3] = P. aeruginosa M7723, resistance gene kpc
[4] = P. aeruginosa M7728, resistance gene imp
[5] = P. aeruginosa M7907, resistance gene per
[6] = S. aureus 28, resistance gene ermA
[7] = S. aureus 33, resistance gene msrA
[8] = S. aureus 204, resistance gene ermA
[9] = S. aureus 239, resistance gene ermC
[10] = S. aureus M2832, resistance gene mecA
[11] = S. aureus M4046, resistance gene mecA
[12] = S. aureus M6784, resistance gene mecA
[13] = E. coli ABC11, resistance gene ctx-m-2
[14] = E. coli Cos15, resistance gene per + tem
[15] = E. coli LCA1, resistance gene ctx-m-2 + tem-1
[16] = E. coli M5306, resistance gene ctx-m-2 + tem-1 + per-2
[17] = E. coli M7859, resistance gene cit
[18] = E. coli M9209, resistance gene kpc
[19] = E. coli NEU23, resistance gene oxa-GIII + tem
[20] = A. baumanii FAV-1, resistance gene per + oxa-51 + oxa-58
[21] = A. baumanii M5179, resistance gene oxa-51
[22] = A. baumanii M5277, resistance gene per
[23] = A. baumanii M5282, resistance gene oxa-51
[24] = A. baumanii M7489, resistance gene oxa-51 + tem
[25] = A. baumanii M7978, resistance gene imp
[26] = A. baumanii M13523, resistance gene oxa-51
[27] = E. gallinarum M2685, resistance gene vanC1 + vanA
[28] = E. gallinarum M2723, resistance gene vanC1 + vanA

For “GLLKKWLKKWKEFKRIVGY-NH2 [peptide 2, GLLKKWLKKWKEFKRIVGY]”, the MIC (Pseudomonas aeruginosa; [1]) was 64 µg/mL, the MIC (Pseudomonas aeruginosa; [2]) was 64 µg/mL and the MIC (Pseudomonas aeruginosa; [3]) was 64 µg/mL. The MIC (Pseudomonas aeruginosa; [4]) was 64 µg/mL, the MIC (Pseudomonas aeruginosa; [5]) was 64 µg/mL and the MIC (Staphylococcus aureus; [6]) was 64 µg/mL. The MIC (Staphylococcus aureus; [7]) was 128 µg/mL, the MIC (Staphylococcus aureus; [8]) was 64 µg/mL and the MIC (Staphylococcus aureus; [9]) was 64 µg/mL. The MIC (Staphylococcus aureus; S. aureus ATCC29213, WT) was 64 µg/mL, the MIC (Staphylococcus aureus; [10]) was 128 µg/mL and the MIC (Staphylococcus aureus; [11]) was 128 µg/mL. The MIC (Staphylococcus aureus; [12]) was 32 µg/mL, the “hemolysis values (in words)” value (human erythrocytes) was “high hemolysis values” and the “MIC in agar dilution” value (K. pneumoniae) was 64 µg/mL. The “MIC in agar dilution” value (S. aureus) was over 128 µg/mL, the “MIC in agar dilution” value (E. coli) was 128 µg/mL and the “MIC in agar dilution” value (S. warnerii) was 8 µg/mL. For the same substance, the “MIC in agar dilution” value (P. aeruginosa) was over 128 µg/mL, the “MIC in agar dilution” value (S. cohnii) was 16 µg/mL and the MIC (Escherichia coli; [13]) was 32 µg/mL. For the same substance, the MIC (Escherichia coli; [14]) was 64 µg/mL, the MIC (Escherichia coli; [15]) was 64 µg/mL and the MIC (Escherichia coli; [16]) was 4 µg/mL. It also gave an MIC (Escherichia coli; [17]) of 32 µg/mL, an MIC (Escherichia coli; [18]) of 64 µg/mL and an MIC (Escherichia coli; [19]) of 32 µg/mL. It also gave an MIC (S. haemolyticus) of 8 µg/mL, an MIC (A. baumanii; [20]) of 16 µg/mL and an MIC (A. baumanii; [21]) of 32 µg/mL. For the same substance, the MIC (A. baumanii; [22]) was 32 µg/mL, the MIC (A. baumanii; [23]) was 8 µg/mL and the MIC (A. baumanii; A. baumanii M5949, resistance gene oxa-23 + oxa-GVI) was 32 µg/mL. For the same substance, the MIC (A. baumanii; [24]) was 8 µg/mL, the MIC (A. baumanii; [25]) was 16 µg/mL and the MIC (A. baumanii; A. baumanii M9665, resistance gene oxa-51) was 4 µg/mL. For the same substance, the MIC (A. baumanii; [26]) was 32 µg/mL, the MIC (E. raffinosus) was 8 µg/mL and the MIC (E. gallinarum; [27]) was 16 µg/mL. It also gave an MIC (E. gallinarum; [28]) of 32 µg/mL.

Work on WPKWWKWKRRWGRKKAKKRRG-NH2 [peptide 1] yielded an MIC (Pseudomonas aeruginosa; P. aeruginosa M5109, resistance gene vim) of 128 µg/mL, an MIC (Pseudomonas aeruginosa; P. aeruginosa M5470, resistance gene ND) of 128 µg/mL and an MIC (Pseudomonas aeruginosa; [1]) of 64 µg/mL. It also gave an MIC (Pseudomonas aeruginosa; [2]) of 64 µg/mL, an MIC (Pseudomonas aeruginosa; [3]) of 64 µg/mL and an MIC (Pseudomonas aeruginosa; [4]) of 128 µg/mL. It also gave an MIC (Pseudomonas aeruginosa; [5]) of 128 µg/mL, an MIC (Staphylococcus aureus; [6]) of 32 µg/mL and an MIC (Staphylococcus aureus; [7]) of 32 µg/mL. For the same substance, the MIC (Staphylococcus aureus; [8]) was 64 µg/mL, the MIC (Staphylococcus aureus; [9]) was 32 µg/mL and the MIC (Staphylococcus aureus; S. aureus ATCC29213, WT) was 32 µg/mL. The MIC (Staphylococcus aureus; [10]) was 32 µg/mL, the MIC (Staphylococcus aureus; [11]) was 32 µg/mL and the MIC (Staphylococcus aureus; S. aureus M6276, resistance gene ermA + lnuA) was 16 µg/mL. For the same substance, the MIC (Staphylococcus aureus; [12]) was 32 µg/mL, the “therapeutic index (antimicrobial potency over the cytotoxicity percentage)” value (human erythrocytes; in words) was “highest therapeutic index values” and the “Hemolysis % (1% Tween20)” value (human erythrocytes; peptide 128 ug/ml, percentage of total lysis obtained with 1% Tween20) was 4%. The “Hemolysis % (water)” value (human erythrocytes; peptide 128 ug/ml, percentage of total lysis obtained with water) was 3.4%, the “OD 540 nm” value (human erythrocytes; peptide 128 ug/ml, supernatant of human erythrocytes, 37° C., 30 minutes) was 0.067 and the “MIC in agar dilution” value (K. pneumoniae; non-amidated peptides, K. pneumoniae M13540, KPC) was over 128 µg/mL. For the same substance, the “MIC in agar dilution” value (S. aureus; non-amidated peptides, S. aureus ATCC29213, MSSA) was over 128 µg/mL, the “MIC in agar dilution” value (S. aureus; non-amidated peptides, S. aureus M6794, MRSA) was over 128 µg/mL and the “MIC in agar dilution” value (E. coli; non-amidated peptides, E. coli ATCC 25922, WT) was over 128 µg/mL. The “MIC in agar dilution” value (S. warnerii) was 16 µg/mL, the “MIC in agar dilution” value (P. aeruginosa) was over 128 µg/mL and the “MIC in agar dilution” value (P. aeruginosa; non-amidated peptides, P. aeruginosa M13513, KPC) was over 128 µg/mL. The “MIC in agar dilution” value (S. cohnii) was 16 µg/mL, the MIC (Escherichia coli; [13]) was 128 µg/mL and the MIC (Escherichia coli; [14]) was 128 µg/mL. For the same substance, the MIC (Escherichia coli; [15]) was 128 µg/mL, the MIC (Escherichia coli; [16]) was 128 µg/mL and the MIC (Escherichia coli; [17]) was 128 µg/mL. The MIC (Escherichia coli; [18]) was 128 µg/mL, the MIC (Escherichia coli; [19]) was 128 µg/mL and the MIC (S. haemolyticus) was 16 µg/mL. It also gave an MIC (A. baumanii; [20]) of 64 µg/mL, an MIC (A. baumanii; [21]) of 64 µg/mL and an MIC (A. baumanii; [22]) of 64 µg/mL. The MIC (A. baumanii; [23]) was 64 µg/mL, the MIC (A. baumanii; [24]) was 64 µg/mL and the MIC (A. baumanii; [25]) was 64 µg/mL. The MIC (A. baumanii; [26]) was 64 µg/mL, the MIC (S. saprophyticus) was 16 µg/mL and the MIC (E. gallinarum; [27]) was 16 µg/mL. For the same substance, the MIC (E. gallinarum; [28]) was 32 µg/mL, the MIC (E. faecalis) was 64 µg/mL and the MIC (E. faecalis; E. faecalis ATCC 51299, resistance gene vanB) was 256 µg/mL. For the same substance, the MIC (E. faecalis; E. faecalis M4449, resistance gene vanA) was 128 µg/mL, the MIC (E. faecalis; E. faecalis M4899, resistance gene vanB) was 256 µg/mL and the MIC (E. faecalis; E. faecalis M4992, resistance gene vanA) was 128 µg/mL. For the same substance, the MIC (E. faecalis; E. faecalis M6383, resistance gene vanA) was 128 µg/mL and the MIC (E. faecalis; E. faecalis M6534, resistance gene vanB) was 128 µg/mL.
